# Experimental data: patent US7118895B2, “Process for producing aglycon by using diglycosidase and flavor-improved food containing the aglycon and converting agent to be used in the process” (Amano Enzyme Inc., priority 2000, dated 2006)
# Test system: Crude diglycosidase
# Experiment: Examination of pH in the conversion into isoflavone aglycons by diglycosidase using soybean materials
# Type: biochemical, Penicillium multicolor IAM7153
# Design: Decomposition efficiency of genistin family in soymilk / Decomposition efficiency of genistin family in defatted soybean / Decomposition efficiency of daidzin family in defatted soybean: concentration or dose not given beside the values
# Conditions: for Decomposition efficiency of daidzin family in roasted soy flour: 55° C.
# Procedure: A substrate solution of 450 μL was prepared by suspending 50 mg of each soybean material (roasted soy flour (manufactured by Fuji Shokuryo K.K.), soymilk (manufactured by Gitoh Shokuhin K.K.), defatted soybean (manufactured by Fuji Seiyu K.K.), concentrated soybean protein (manufactured by Fuji Seiyu K.K.)), and adjusting the pH to 2 to 11 with hydrochloric acid or sodium hydroxide. Each enzyme solution of pH 2–11 wherein diglycosidase activity of crude diglycosidase was adjusted to 1.88 AU/mL was added thereto in an amount of 50 μL and the whole was reacted at 55° C. at the total volume of 500 μL. To the reaction mixture was added 700 μL of ethanol after 0, 1, 3, and 6 hours of the reaction. After stirring and ultrasonication, the mixture was subjected to centrifugal separation at 15,000 rpm and 4° C. for 10 minutes. The supernatant was filtered through a filter and the existence of isoflavone glycosides and aglycon isoflavones contained in the reaction mixture was detected by HLPC (Tables 15 to 26).
# [1] = pH4.8, heat treatment of enzyme: no, reaction time 0 h
# [2] = pH4.8, heat treatment of enzyme: no, reaction time 1 h
# [3] = pH4.8, heat treatment of enzyme: no, reaction time 3 h
# [4] = pH4.8, heat treatment of enzyme: no, reaction time 6 h
# [5] = pH4.8, heat treatment of enzyme: yes, reaction time 6 h
smiles,measurement,setting,value
"CC(=O)OC[C@H]1O[C@@H](Oc2ccc3c(=O)c(-c4ccc(O)cc4)coc3c2)[C@H](O)[C@@H](O)[C@@H]1O [acetyldaidzin, 6″-O-acetyldaidzin]",Decomposition efficiency of daidzin family in concentrated soybean protein,"pH1.6, heat treatment of enzyme: no, reaction time 0 h",44.5%
same,Decomposition efficiency of daidzin family in concentrated soybean protein,"pH1.6, heat treatment of enzyme: no, reaction time 1 h",43.7%
same,Decomposition efficiency of daidzin family in concentrated soybean protein,"pH1.6, heat treatment of enzyme: no, reaction time 3 h",41.7%
same,Decomposition efficiency of daidzin family in concentrated soybean protein,"pH1.6, heat treatment of enzyme: no, reaction time 6 h",39.4%
same,Decomposition efficiency of daidzin family in concentrated soybean protein,"pH1.6, heat treatment of enzyme: yes, reaction time 6 h",38.1%
same,Decomposition efficiency of daidzin family in roasted soy flour,"pH2, heat treatment of enzyme no, reaction time 0 h",47.4
same,Decomposition efficiency of daidzin family in roasted soy flour,"pH2, heat treatment of enzyme no, reaction time 1 h",46.9
same,Decomposition efficiency of daidzin family in roasted soy flour,"pH2, heat treatment of enzyme no, reaction time 3 h",45.0
same,Decomposition efficiency of daidzin family in roasted soy flour,"pH2, heat treatment of enzyme no, reaction time 6 h",42.4
same,Decomposition efficiency of daidzin family in roasted soy flour,"pH2, heat treatment of enzyme yes, reaction time 6 h",42.4
same,Decomposition efficiency of daidzin family in soymilk,"pH2.3, heat treatment of enzyme: no, reaction time 0 h",not detected
same,Decomposition efficiency of daidzin family in soymilk,"pH2.3, heat treatment of enzyme: no, reaction time 1 h",not detected
same,Decomposition efficiency of daidzin family in soymilk,"pH2.3, heat treatment of enzyme: no, reaction time 3 h",not detected
same,Decomposition efficiency of daidzin family in soymilk,"pH2.3, heat treatment of enzyme: no, reaction time 6 h",not detected
same,Decomposition efficiency of daidzin family in soymilk,"pH2.3, heat treatment of enzyme: yes, reaction time 6 h",not detected
same,Decomposition efficiency of daidzin family in defatted soybean,"pH2.6, heat treatment of enzyme: no, reaction time 0 h",not detected
same,Decomposition efficiency of daidzin family in defatted soybean,"pH2.6, heat treatment of enzyme: no, reaction time 1 h",not detected
same,Decomposition efficiency of daidzin family in defatted soybean,"pH2.6, heat treatment of enzyme: no, reaction time 3 h",not detected
same,Decomposition efficiency of daidzin family in defatted soybean,"pH2.6, heat treatment of enzyme: no, reaction time 6 h",not detected
same,Decomposition efficiency of daidzin family in defatted soybean,"pH2.6, heat treatment of enzyme: yes, reaction time 6 h",not detected
same,Decomposition efficiency of daidzin family in concentrated soybean protein,"pH2.7, heat treatment of enzyme: no, reaction time 0 h",44.5%
same,Decomposition efficiency of daidzin family in concentrated soybean protein,"pH2.7, heat treatment of enzyme: no, reaction time 1 h",46.4%
same,Decomposition efficiency of daidzin family in concentrated soybean protein,"pH2.7, heat treatment of enzyme: no, reaction time 3 h",46.0%
same,Decomposition efficiency of daidzin family in concentrated soybean protein,"pH2.7, heat treatment of enzyme: no, reaction time 6 h",45.8%
same,Decomposition efficiency of daidzin family in concentrated soybean protein,"pH2.7, heat treatment of enzyme: yes, reaction time 6 h",43.9%
same,Decomposition efficiency of daidzin family in roasted soy flour,"pH3, heat treatment of enzyme no, reaction time 0 h",47.4
same,Decomposition efficiency of daidzin family in roasted soy flour,"pH3, heat treatment of enzyme no, reaction time 1 h",46.0
same,Decomposition efficiency of daidzin family in roasted soy flour,"pH3, heat treatment of enzyme no, reaction time 3 h",39.6
same,Decomposition efficiency of daidzin family in roasted soy flour,"pH3, heat treatment of enzyme no, reaction time 6 h",40.7
same,Decomposition efficiency of daidzin family in roasted soy flour,"pH3, heat treatment of enzyme yes, reaction time 6 h",47.4
same,Decomposition efficiency of daidzin family in defatted soybean,"pH3.4, heat treatment of enzyme: no, reaction time 0 h",not detected
same,Decomposition efficiency of daidzin family in defatted soybean,"pH3.4, heat treatment of enzyme: no, reaction time 1 h",not detected
same,Decomposition efficiency of daidzin family in defatted soybean,"pH3.4, heat treatment of enzyme: no, reaction time 3 h",not detected
same,Decomposition efficiency of daidzin family in defatted soybean,"pH3.4, heat treatment of enzyme: no, reaction time 6 h",not detected
same,Decomposition efficiency of daidzin family in defatted soybean,"pH3.4, heat treatment of enzyme: yes, reaction time 6 h",not detected
same,Decomposition efficiency of daidzin family in soymilk,"pH3.5, heat treatment of enzyme: no, reaction time 0 h",not detected
same,Decomposition efficiency of daidzin family in soymilk,"pH3.5, heat treatment of enzyme: no, reaction time 1 h",not detected
same,Decomposition efficiency of daidzin family in soymilk,"pH3.5, heat treatment of enzyme: no, reaction time 3 h",not detected
same,Decomposition efficiency of daidzin family in soymilk,"pH3.5, heat treatment of enzyme: no, reaction time 6 h",not detected
same,Decomposition efficiency of daidzin family in soymilk,"pH3.5, heat treatment of enzyme: yes, reaction time 6 h",not detected
same,Decomposition efficiency of daidzin family in concentrated soybean protein,"pH3.7, heat treatment of enzyme: no, reaction time 0 h",44.6%
same,Decomposition efficiency of daidzin family in concentrated soybean protein,"pH3.7, heat treatment of enzyme: no, reaction time 1 h",41.6%
same,Decomposition efficiency of daidzin family in concentrated soybean protein,"pH3.7, heat treatment of enzyme: no, reaction time 3 h",33.0%
same,Decomposition efficiency of daidzin family in concentrated soybean protein,"pH3.7, heat treatment of enzyme: no, reaction time 6 h",25.2%
same,Decomposition efficiency of daidzin family in concentrated soybean protein,"pH3.7, heat treatment of enzyme: yes, reaction time 6 h",44.4%
same,Decomposition efficiency of daidzin family in roasted soy flour,"pH4, heat treatment of enzyme no, reaction time 0 h",47.7
same,Decomposition efficiency of daidzin family in roasted soy flour,"pH4, heat treatment of enzyme no, reaction time 1 h",34.4
same,Decomposition efficiency of daidzin family in roasted soy flour,"pH4, heat treatment of enzyme no, reaction time 3 h",20.5
same,Decomposition efficiency of daidzin family in roasted soy flour,"pH4, heat treatment of enzyme no, reaction time 6 h",11.1
same,Decomposition efficiency of daidzin family in roasted soy flour,"pH4, heat treatment of enzyme yes, reaction time 6 h",47.9
same,Decomposition efficiency of daidzin family in defatted soybean,[1],not detected
same,Decomposition efficiency of daidzin family in soymilk,[1],not detected
same,Decomposition efficiency of daidzin family in defatted soybean,[2],not detected
same,Decomposition efficiency of daidzin family in soymilk,[2],not detected
same,Decomposition efficiency of daidzin family in defatted soybean,[3],not detected
same,Decomposition efficiency of daidzin family in soymilk,[3],not detected
same,Decomposition efficiency of daidzin family in defatted soybean,[4],not detected
same,Decomposition efficiency of daidzin family in soymilk,[4],not detected
same,Decomposition efficiency of daidzin family in defatted soybean,[5],not detected
same,Decomposition efficiency of daidzin family in soymilk,[5],not detected
